In ChEMBL document CHEMBL5236591, “Targeting Gatekeeper Mutations for Kinase Drug Discovery” (J Med Chem, 2022):

Tests used:
[1] = test system: BaF3; assay: cells; settings: Mus musculus
Description: Antiproliferative activity against mouse BaF3 cells harboring TRKA F589L mutant assessed as cell growth inhibition

[2] = Antiproliferative activity against mouse 32D cells expressing FLT3-ITD-F691L assessed as cell growth inhibition; type: functional
[3] = Antiproliferative activity against mouse 32D cells expressing FLT3-ITD assessed as cell growth inhibition; type: functional
[4] = Antiproliferative activity against mouse 32D cells expressing FLT3-D835Y assessed as cell growth inhibition; type: functional
[5] = test system: MOLM-14; assay: Antiproliferative activity against human MOLM-14 cells harboring FLT3 F691L mutant assessed as cell growth inhibition; type: functional, cell-based
[6] = test system: BaF3; assay: Antiproliferative activity against mouse BaF3 cells harboring FLT3 F691L mutant assessed as cell growth inhibition; type: functional, cell-based
[7] = test system: BaF3; assay: Antiproliferative activity against mouse BaF3 cells harboring FLT3 D835Y mutant assessed as cell growth inhibition; type: functional, cell-based
[8] = molecular target: Fibroblast growth factor receptor 4 (Mus musculus, UniProt Q03142); assay: Inhibition of FGFR4 in mouse BaF3 cells; type: cell-based
[9] = molecular target: Mast/stem cell growth factor receptor Kit (Homo sapiens, UniProt P10721); assay: Inhibition of wild type KIT (unknown origin)
Sequence of Mast/stem cell growth factor receptor Kit (P10721 whole entry): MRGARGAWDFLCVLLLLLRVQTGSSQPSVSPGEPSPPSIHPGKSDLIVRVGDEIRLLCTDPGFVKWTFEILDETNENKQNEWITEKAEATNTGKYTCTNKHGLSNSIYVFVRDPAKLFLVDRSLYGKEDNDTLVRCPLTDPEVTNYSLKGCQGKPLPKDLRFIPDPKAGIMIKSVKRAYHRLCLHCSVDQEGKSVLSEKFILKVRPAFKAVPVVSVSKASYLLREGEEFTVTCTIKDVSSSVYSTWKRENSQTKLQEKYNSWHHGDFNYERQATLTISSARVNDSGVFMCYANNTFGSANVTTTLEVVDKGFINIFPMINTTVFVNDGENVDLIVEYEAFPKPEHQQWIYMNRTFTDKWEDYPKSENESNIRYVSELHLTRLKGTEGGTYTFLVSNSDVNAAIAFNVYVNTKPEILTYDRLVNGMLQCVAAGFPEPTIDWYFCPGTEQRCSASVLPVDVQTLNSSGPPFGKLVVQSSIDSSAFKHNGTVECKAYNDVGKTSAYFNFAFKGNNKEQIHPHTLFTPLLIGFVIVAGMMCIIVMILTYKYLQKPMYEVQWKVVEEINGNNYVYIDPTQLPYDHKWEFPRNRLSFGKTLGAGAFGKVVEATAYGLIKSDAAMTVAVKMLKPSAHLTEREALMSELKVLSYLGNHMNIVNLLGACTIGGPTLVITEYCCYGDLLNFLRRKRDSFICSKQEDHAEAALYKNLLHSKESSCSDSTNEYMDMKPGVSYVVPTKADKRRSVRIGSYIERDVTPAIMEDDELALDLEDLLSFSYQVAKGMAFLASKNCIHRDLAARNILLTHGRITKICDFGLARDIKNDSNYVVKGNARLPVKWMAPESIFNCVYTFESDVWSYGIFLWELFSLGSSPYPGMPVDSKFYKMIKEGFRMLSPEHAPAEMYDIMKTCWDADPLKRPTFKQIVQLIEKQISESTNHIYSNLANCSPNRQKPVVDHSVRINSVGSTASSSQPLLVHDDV

Sequence of Fibroblast growth factor receptor 4 (Q03142 whole entry): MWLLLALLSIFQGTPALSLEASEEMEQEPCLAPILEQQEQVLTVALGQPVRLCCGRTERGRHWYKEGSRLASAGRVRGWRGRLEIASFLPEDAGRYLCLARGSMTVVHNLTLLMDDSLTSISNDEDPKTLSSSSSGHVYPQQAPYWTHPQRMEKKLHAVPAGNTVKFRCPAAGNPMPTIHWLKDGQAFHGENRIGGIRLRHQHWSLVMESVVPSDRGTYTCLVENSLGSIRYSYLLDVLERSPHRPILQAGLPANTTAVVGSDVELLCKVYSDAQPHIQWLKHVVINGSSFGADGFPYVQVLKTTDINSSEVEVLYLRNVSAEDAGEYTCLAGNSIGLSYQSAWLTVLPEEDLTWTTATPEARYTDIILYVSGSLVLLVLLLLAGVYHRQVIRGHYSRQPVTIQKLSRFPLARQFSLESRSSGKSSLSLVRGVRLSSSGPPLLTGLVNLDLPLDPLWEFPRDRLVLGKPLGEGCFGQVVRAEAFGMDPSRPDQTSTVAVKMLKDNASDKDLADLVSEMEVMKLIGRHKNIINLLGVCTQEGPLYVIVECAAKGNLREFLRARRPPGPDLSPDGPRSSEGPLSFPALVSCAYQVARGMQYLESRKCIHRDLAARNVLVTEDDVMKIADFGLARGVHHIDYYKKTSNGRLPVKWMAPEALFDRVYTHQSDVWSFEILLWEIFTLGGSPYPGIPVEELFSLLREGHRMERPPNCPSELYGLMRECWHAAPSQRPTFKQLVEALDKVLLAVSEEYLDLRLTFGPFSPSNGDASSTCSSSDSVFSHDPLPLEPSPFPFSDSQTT

In the case of `C[C@@H]1CCc2ncc(F)cc2[C@H]2CCCN2c2ccn3ncc(c3n2)C(=O)N1` [SELITRECTINIB], the IC50 [1] is reported as 27.8 nM.
`CCCNc1nc(Nc2ccc(C#N)cc2)ncc1C#CCCCNC(=O)[C@H](C)N(C)C(=O)/C=C/CN(C)C` [FF-10101] showed a GI50 [2] of 10 nM, a GI50 [3] of 1.9 nM and a GI50 [4] of 0.81 nM.
In the case of `FC(F)(F)c1ccc(CNc2ccc(Cc3c[nH]c4ncc(Cl)cc34)cn2)cn1` [PEXIDARTINIB], the IC50 [5] is reported as 670 nM, the IC50 [6] is reported as 97 nM and the IC50 [7] is reported as 4700 nM.
For `C=CC(=O)Nc1cc(N2CCC(N3CCOCC3)CC2)cc(F)c1Nc1n[nH]c2ccc(O[C@H](C)c3c(Cl)cncc3Cl)cc12`, the IC50 [8] was 3.5 nM.
`COCCOc1cc(F)c2c(Nc3ccc(NC(=O)Cn4cc(C(C)C)nn4)cc3)ncnc2c1` gave an IC50 [9] of 3 nM.
